Source: PubChem BioAssay AID330 (DTP/NCI, 2004)
“And” between values parts separate entries of the source, which are not always exact repeats. Equal entries are not always repeated. Toxic doses and inconclusive results are not listed. The calls were made as follows: active = survival T/C of 150% or more; inactive = T/C below 125% in these data.

System: P388 leukemia ip, CD2F1 mice, survival T/C
Test: NCI In Vivo Anticancer Drug Screen. Data for tumor model P388 Leukemia (intraperitoneal) in CD2F1 (CDF1) mice
Conditions: endpoint: median survival time, higher = longer survival
Summary of the method: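 Mice carrying the transplanted tumor received test compound or vehicle. Survival was recorded in each group, and the value is the treated-group measurement divided by that of the vehicle-treated control group.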

[1] = dose: 25.0 mg/kg/injection, schedule: Q01DX009 (ip), vehicle: saline with Tween-80
[2] = dose: 50.0 mg/kg/injection, schedule: Q01DX009 (ip), vehicle: saline with Tween-80
[3] = dose: 100.0 mg/kg/injection, schedule: Q01DX009 (ip), vehicle: saline with Tween-80
[4] = dose: 200.0 mg/kg/injection, schedule: Q01DX009 (ip), vehicle: saline with Tween-80
[5] = dose: 50.0 mg/kg/injection, schedule: Q01DX005 (ip), vehicle: Klucel (hydroxypropylcellulose) (HPC)
[6] = dose: 100.0 mg/kg/injection, schedule: Q01DX005 (ip), vehicle: Klucel (hydroxypropylcellulose) (HPC)
[7] = dose: 50.0 mg/kg/injection, schedule: Q01DX009 (ip), vehicle: saline
[8] = dose: 100.0 mg/kg/injection, schedule: Q01DX009 (ip), vehicle: saline
[9] = dose: 200.0 mg/kg/injection, schedule: Q01DX009 (ip), vehicle: saline
[10] = dose: 60.0 mg/kg/injection, schedule: Q01DX005 (ip), vehicle: Klucel (hydroxypropylcellulose) (HPC)
[11] = dose: 50.0 mg/kg/injection, schedule: Q01DX005 (ip), vehicle: saline with Tween-80
[12] = dose: 100.0 mg/kg/injection, schedule: Q01DX005 (ip), vehicle: saline with Tween-80

Measured: T/C

COc1oc(C2C/C(=C/C(C)=C/C(C)=C/C(C)=C/c3ccc([N+](=O)[O-])cc3)CO2)c(C)c(=O)c1C (stereo not given)
inactive: dose: 0.25 mg/kg/injection, schedule: Q01DX005 (ip), vehicle: saline 116 % of control | dose: 0.5 mg/kg/injection, schedule: Q01DX005 (ip), vehicle: saline 107 % of control | dose: 1.0 mg/kg/injection, schedule: Q01DX005 (ip), vehicle: saline 113 % of control | dose: 2.0 mg/kg/injection, schedule: Q01DX005 (ip), vehicle: saline 121 % of control

Clc1ccc(S[As](Sc2ccc(Cl)cc2)Sc2ccc(Cl)cc2)cc1
inactive: dose: 100.0 mg/kg/injection, schedule: Q04DX002 (ip), vehicle: Klucel (hydroxypropylcellulose) (HPC) 121 % of control | dose: 200.0 mg/kg/injection, schedule: Q04DX002 (ip), vehicle: Klucel (hydroxypropylcellulose) (HPC) 114 % of control | dose: 400.0 mg/kg/injection, schedule: Q04DX002 (ip), vehicle: Klucel (hydroxypropylcellulose) (HPC) 113 % of control

O=C(Nc1ccc(NC(=O)C(Cl)(Cl)Cl)cc1)C(Cl)(Cl)Cl
inactive: [1] 105 % of control | [2] 91 % of control | [3] 92 % of control | [4] 99 % of control

CCCN(CCC)C1=CC(=O)C(N(CCC)CCC)=CC1=O
inactive: [5] 117 % of control | [6] 89 % of control

CCCCCCCCCC[N+]1([O-])CCOCC1
inactive: [7] 100 % of control | [8] 89 % of control

[Br][Rh][Br].[NH-]c1nc2ccc(Br)cc2s1.[NH-]c1nc2ccc(Br)cc2s1.[NH-]c1nc2ccc(Br)cc2s1.[NH-]c1nc2ccc(Br)cc2s1
inactive: [7] 100 % of control | [8] 98 % of control | [9] 100 % of control

COC(=O)c1nc(=S)[nH]c(C(=O)OC)c1C(=O)c1ccc(O)c(OC)c1
inactive: [10] 104 % of control | dose: 120.0 mg/kg/injection, schedule: Q01DX005 (ip), vehicle: Klucel (hydroxypropylcellulose) (HPC) 90 % of control

N=[N+]=CC(=O)CC(N)C(=O)O (stereo not given)
inactive: [8] 117 % of control | dose: 100.0 mg/kg/injection, schedule: Q04DX003 (ip), vehicle: saline 92 % of control | dose: 200.0 mg/kg/injection, schedule: Q04DX003 (ip), vehicle: saline 100 % of control | dose: 400.0 mg/kg/injection, schedule: Q04DX003 (ip), vehicle: saline 100 % of control

Nc1c[nH]c(=S)s1
inactive: [1] 116 % of control | [2] 114 % of control | [3] 94 % of control

COc1cc(CC2c3cc(OC)c(OC)cc3CCN2C)c(NC(=O)c2ccc(C(=O)Nc3cc(OC)c(OC)cc3CC3c4cc(OC)c(OC)cc4CCN3C)cc2)cc1OC (stereo not given)
inactive: dose: 12.5 mg/kg/injection, schedule: Q01DX009 (ip), vehicle: other 90 % of control | dose: 25.0 mg/kg/injection, schedule: Q01DX009 (ip), vehicle: other 92 % of control | dose: 50.0 mg/kg/injection, schedule: Q01DX009 (ip), vehicle: other 86 % of control | dose: 200.0 mg/kg/injection, schedule: Q01DX009 (ip), vehicle: other 92 % of control | dose: 400.0 mg/kg/injection, schedule: Q01DX009 (ip), vehicle: other 104 % of control

Nc1ccc(CCCCc2ccc(Cl)c(S(=O)(=O)F)c2)c(Cl)c1
inactive: [3] 91 % of control | [4] 91 % of control

O=S(=O)(Cl)C(F)(F)C(F)(F)C(F)(F)C(F)(F)F
inactive: [7] 102 % of control | [8] 103 % of control | [9] 88 % of control

Nc1c(-c2ncc[nH]2)[nH]c2cc(-c3ncc[nH]3)ccc12
inactive: dose: 15.0 mg/kg/injection, schedule: Q01DX005 (ip), vehicle: Klucel (hydroxypropylcellulose) (HPC) 97 % of control | dose: 30.0 mg/kg/injection, schedule: Q01DX005 (ip), vehicle: Klucel (hydroxypropylcellulose) (HPC) 100 % of control | [10] 99 % of control and 101 % of control

COc1ccc2nc(NC(=O)Nc3ccc(C)c(NC(=O)Nc4nc5ccc(OC)cc5s4)c3)sc2c1
inactive: dose: 50.0 mg/kg/injection, schedule: Q01DX009 (ip), vehicle: Klucel (hydroxypropylcellulose) (HPC) 92 % of control | dose: 100.0 mg/kg/injection, schedule: Q01DX009 (ip), vehicle: Klucel (hydroxypropylcellulose) (HPC) 89 % of control

CN(C)CCC(=O)c1ccc(O)cc1
inactive: [7] 98 % of control | [8] 105 % of control | [9] 106 % of control

CCN(CC)/C(N)=N/O
inactive: dose: 2.5 mg/kg/injection, schedule: Q01DX009 (ip), vehicle: saline 95 % of control | dose: 5.0 mg/kg/injection, schedule: Q01DX009 (ip), vehicle: saline 104 % of control | dose: 10.0 mg/kg/injection, schedule: Q01DX009 (ip), vehicle: saline 102 % of control

COc1cccc(C(c2cc3c(cc2O)OCO3)N2CCN(C(c3cc4c(cc3O)OCO4)c3cccc(OC)c3O)CC2)c1O (stereo not given)
inactive: dose: 60.0 mg/kg/injection, schedule: Q01DX005 (ip), vehicle: saline 98 % of control | dose: 120.0 mg/kg/injection, schedule: Q01DX005 (ip), vehicle: saline 98 % of control | dose: 240.0 mg/kg/injection, schedule: Q01DX005 (ip), vehicle: saline 100 % of control

CC1CC(O)C2C1CC1CCC2(C)OC1(C)C (stereo not given)
inactive: [3] 105 % of control | [4] 105 % of control | dose: 400.0 mg/kg/injection, schedule: Q01DX009 (ip), vehicle: saline with Tween-80 100 % of control

Cc1nn(C(=S)S)c(C)c1N=Nc1ccc(O)cc1
inactive: [11] 100 % of control | [12] 102 % of control | dose: 200.0 mg/kg/injection, schedule: Q01DX005 (ip), vehicle: saline with Tween-80 101 % of control

O=C(O)c1cc(Cc2c[nH]c(=O)[nH]c2=O)ccc1O
inactive: dose: 25.0 mg/kg/injection, schedule: Q01DX005 (ip), vehicle: saline with Tween-80 111 % of control | [11] 111 % of control | [12] 101 % of control

Nc1nc(C2CCCC2)c(I)c(=O)[nH]1
inactive: [5] 105 % of control | [6] 108 % of control | dose: 200.0 mg/kg/injection, schedule: Q01DX005 (ip), vehicle: Klucel (hydroxypropylcellulose) (HPC) 92 % of control

Cn1cnc([N+](=O)[O-])c1Sc1nc(N)nc2nc[nH]c12
inactive: [1] 109 % of control | dose: 50.0 mg/kg/injection, schedule: Q01DX009 (ip), vehicle: saline sonified 109 % of control | dose: 100.0 mg/kg/injection, schedule: Q04DX003 (ip), vehicle: Klucel (hydroxypropylcellulose) (HPC) 122 % of control

C1C2OC2C2C1C1CC2C2OC12 (stereo not given)
inactive: dose: 6.25 mg/kg/injection, schedule: Q01DX009 (ip), vehicle: Klucel (hydroxypropylcellulose) (HPC) 105 % of control | dose: 12.5 mg/kg/injection, schedule: Q01DX009 (ip), vehicle: Klucel (hydroxypropylcellulose) (HPC) 96 % of control | dose: 25.0 mg/kg/injection, schedule: Q01DX009 (ip), vehicle: Klucel (hydroxypropylcellulose) (HPC) 99 % of control

CN(C)c1ccc(/C=C/c2ccc3ccccc3[n+]2C)cc1
inactive: dose: 1.0 mg/kg/injection, schedule: Q01DX009 (ip), vehicle: saline sonified 123 % of control | dose: 1.5 mg/kg/injection, schedule: Q01DX009 (ip), vehicle: saline sonified 123 % of control | dose: 2.3 mg/kg/injection, schedule: Q01DX009 (ip), vehicle: saline sonified 119 % of control | dose: 6.25 mg/kg/injection, schedule: Q04DX003 (ip), vehicle: saline sonified 100 % of control | dose: 12.5 mg/kg/injection, schedule: Q04DX003 (ip), vehicle: saline sonified 109 % of control | dose: 25.0 mg/kg/injection, schedule: Q04DX003 (ip), vehicle: saline sonified 113 % of control
